Patent US20070293458A1, “Prevention of nuclear, solar, and other radiation-induced tissue damage” (IP-6 Research Inc., priority 2006, published 2007)
Entries after “also recorded” stand apart in the source; their conditions may differ.

Assays:
Format in all cases: cell-based, human
[1] = system: caspase-3 activation of HaCaT cells; assay: Fluorometric CaspACE assay of activated caspase-3 activity
Description: FIG. 4. Effect of IP-6 and UVB radiation on caspase-3 activation of HaCaT cells. To assess activated caspase-3 activity, cells were either not exposed or exposed to 30 mJ/cm^2 UVB radiation, and then either treated with 1.0 mM Na-IP-6 or not treated with IP-6. Eighteen hours later, cells were harvested and fluorometric CaspACE assays were performed. Activated caspase-3 activity is represented as relative fluorescence units. **Significant at p<0.01, as compared to the group exposed to UVB but not treated with IP-6. The concentration of inositol in the media is 38.8 μM.
HaCaT cells were plated in 60 mm tissue culture dishes for 24 hours. The cells were either exposed to 30 mJ/cm^2 UVB radiation or not exposed. […] 10 μL of sample was then combined with caspase assay buffer (312.5 mM HEPES (pH 7.5), 31.25% sucrose, 0.3125% CHAPS (3-[(3-cholamido-propyl)-dimethyl ammonio]-1 propane-sulfonate, 2% DMSO, 10 mM DTT) containing 50 μM caspase-3 substrate, Ac-DEVD-AMC, in white 96 well microtiter plates. Negative control wells included 2 μL of 2.5 mM specific peptide inhibitor of caspase-3 (Ac-DEVD-CHO). The plate was incubated at 30° C. for 1 hour. The free reaction product, AMC was then measured using a fluorescent plate reader with an excitation wavelength of 360 nm and an emission wavelength of 460 nm. Caspase-3 activity was reported as relative fluorescent intensity of AMC.

[2] = system: HaCaT cells; assay: MTT assay of cell viability and proliferation after UVB radiation
Description: The human keratinocyte (HaCaT) cells were grown in Dulbecco's Modified Eagle's Medium containing 7 mg/L of inositol (38.8 μM), supplemented with 10% heat-inactivated fetal bovine serum, 1% L-glutamine, and 1% antibiotic (penicillin, streptomycin). Cells were maintained at 37° C. and 5% CO2. Na-IP-6 was diluted from a 100 mM stock solution to the required concentrations (0.05-2.0 mM) using cell culture medium as the diluent. UVB intensities of 15, 30, 60 and 120 mJ/cm^2 were used, which was obtained by varying cell exposure time to UVB light (80% of light output is in 290-320 nm UVB range).
HaCaT cells were grown to approximately 80-90% confluency. 100 μL of 1×10^4 cells/mL HaCaT cells were seeded into each well of four 96-well plates. Cells were treated with IP-6 (0-2.0 mM), and on days 0, 1, 2, and 3, 100 μL of 1 mg/mL of aqueous MTT dissolved in DMEM media was added to each well and plates were placed into the incubator (37° C. and 5% CO2) for 4 hours. 150 μL of DMSO was then added to dissolve the formazan products. The absorbance was read at 540 nm using an EL Ultra Micro-plate Reader. Results were recorded as mean absorbance for each set of groups. […]
To determine if IP-6 protects HaCaT cells from UVB-induced injury, The MTT assay was performed as done above. […] Results were recorded as the mean absorbance for each set of groups.

[3] = system: HaCaT cells; assay: Cell attachment (crystal violet absorbance) after UVB radiation
Description: 5×10^4 HaCaT cells were seeded into each well of four 6-well tissue culture plates and incubated at 37° C. and 5% CO2 for 24 hours. One hour before UVB irradiation, two plates were treated with IP-6 (0 and 0.1 mM), one for IP-6 pre-treatment and the other for IP-6 pre-treatment and post-treatment. All four plates were then washed twice with PBS 1×, and a small amount of PBS 1× was added to the wells, which were irradiated at 30 mJ/cm^2. After UVB exposure, PBS was removed from the wells and DMEM media was added to each well. IP-6 (0.05 and 0.1 mM) was then added to the plates labeled no UVB exposure, IP-6 post-treatment, and pre-treatment and post-treatment. The cells were then incubated (37° C. and 5% CO2) for 18 hours. Following incubation, the cells were washed 4 times with PBS 1× (pH 7.4), then fixed with 4.0% formaldehyde for 15 minutes, and stained with 0.5% aqueous crystal violet for at least 5 minutes. Excess crystal violet was washed from the wells and the plates were left to dry. The dried crystal violet residue in each well was then dissolved in 500 μL of 30% acetic acid. The absorbance was read at 595 nm in triplicate in a 96-well plate using an EL Ultra Micro-plate Reader. Additionally, 5×10^4 HaCaT cells were plated into each well of ten 6-well plates as was done above. Before UVB irradiation, cells were washed twice with PBS 1×, and a small amount of PBS 1× was added to the wells. Cells were then exposed to no UVB, or 15, 30, 60, or 120 mJ/cm^2 intensities. Following exposure, cell media was added to the wells and cells were treated with IP-6 (0-2.0 mM). The cells were then incubated at 37° C. and 5% CO2. 18 hours after UVB exposure, cells were fixed with 4% formaldehyde, stained with 0.5% aqueous crystal violet and dissolved with 30% acetic acid as was done above. The absorbance was read in triplicate at 595 nm.

[4] = system: HaCaT cells; assay: Annexin V and PI staining, flow cytometry (apoptotic, necrotic, viable cells) after UVB radiation; settings: UVB-exposed
Description: FIG. 3. Effect of IP-6 and UVB radiation on cell cycle distribution of HaCaT cells. For annexin V and PI staining cells were either not exposed or exposed to 30 mJ/cm^2 UVB radiation, then either treated with 1.0 mM Na-IP-6 or not treated with IP-6. Eighteen hours later, cells were harvested and double stained with annexin V and PI and analyzed by flow cytometry. The number of cells that are present in apoptosis, necrosis or are viable are represented as percentages; p<0.001, as compared to the group exposed to UVB but not treated with IP-6. The concentration of inositol in the media is 38.8 μM. HaCaT cells were plated in 60 mm tissue culture dishes for 24 hours. The cells were then either not exposed, or exposed, to 30 mJ/cm^2 UVB radiation and treated immediately with 0, 0.5 mM, or 1.0 mM IP-6. Cells were harvested 6 and 18 hours after UVB exposure. 5 μL of RNase (DNase-free) was added to 10^6 cells/mL. The cell suspension was incubated at 37° C. for 30 minutes. The suspension was then chilled on ice (2-8° C.). 100 μL of PI was added to the cell suspension (Cellular DNA flow cytometric analysis kit, Roche Diagnostics, Indianapolis, Ind.). DNA quantitation was performed on the same day by flow cytometry using FACS.

[5] = system: HaCaT cells; assay: Cell cycle distribution by PI flow cytometry after UVB radiation
Description: HaCaT cells were plated in 60 mm tissue culture dishes for 24 hours. The cells were then either not exposed, or exposed, to 30 mJ/cm^2 UVB radiation and treated immediately with 0, 0.5 mM, or 1.0 mM IP-6. Cells were harvested 6 and 18 hours after UVB exposure. 5 μL of RNase (DNase-free) was added to 10^6 cells/mL. The cell suspension was incubated at 37° C. for 30 minutes. The suspension was then chilled on ice (2-8° C.). 100 μL of PI was added to the cell suspension (Cellular DNA flow cytometric analysis kit, Roche Diagnostics, Indianapolis, Ind.). DNA quantitation was performed on the same day by flow cytometry using FACS.

[6] = 0.5 mM IP-6, vs UVB without IP-6
[7] = 0.5 and 1.0 mM IP-6, vs UVB without IP-6, p<0.001

For O=P(O)(O)O[C@H]1[C@H](OP(=O)(O)O)[C@@H](OP(=O)(O)O)[C@H](OP(=O)(O)O)[C@@H](OP(=O)(O)O)[C@H]1OP(=O)(O)O [IP-6, inositol hexaphosphate], the “activated caspase-3 activity” value ([1]; 1.0 mM IP-6, no UVB, 18 hours, vs control group) was “increase in activated caspase-3 activity”, the “activated caspase-3 activity” value ([1]; UVB 30 mJ/cm^2 + 1.0 mM IP-6, 18 hours, vs UVB without IP-6, p<0.01) was “significantly lowered” and the “cell viability and proliferation (MTT)” value ([2]; UVB 15-120 mJ/cm^2, IP-6 0-2.0 mM added immediately after UVB, read 24 h later, p<0.001) was “increase in cell viability with increasing concentration of IP-6; also recorded: significant increase in relative cell viability with increasing IP-6 concentrations”. For the same molecule, the “cell viability (MTT), normal trend” value ([2]; normal trend with higher IP-6 concentration (without the UVB effect)) was “decrease in cell viability with higher concentration of IP-6”, the cell attachment ([3]; UVB 15 mJ/cm^2, 18 h, higher IP-6 concentrations (1.0 and 2.0 mM), vs non-IP-6 treated group) was “decrease in cell attachment” and the cell attachment ([3]; UVB 15 mJ/cm^2, 18 h, lower IP-6 concentrations, vs non-IP-6 treated group) was “increase in cell attachment”. For the same molecule, the cell attachment ([3]; UVB 30 mJ/cm^2, 18 h, vs irradiated cells without IP-6, p<0.01 (FIG. 2: 0.5, 1.0 and 2.0 mM)) was “significant increase in HaCaT cell attachment with increasing concentrations of IP-6”, the cell attachment ([3]; UVB 60 mJ/cm^2, 18 h, vs irradiated cells without IP-6) was “decrease in cell attachment” and the cell attachment ([3]; UVB 120 mJ/cm^2, 18 h, vs irradiated cells without IP-6) was “decrease in cell attachment”. For the same molecule, the “percentage of apoptotic cells” value [4, 6] was “significant decrease”, the “percentage of necrotic cells” value [4, 6] was “significant decrease” and the “percentage of viable cells” value [4, 6] was “significant increase”. For the same molecule, the “apoptotic, necrotic and viable cells, effects relative to 0.5 mM” value ([4]; 1.0 mM IP-6) was “much more pronounced”, the “apoptotic cells, dose dependence” value [4, 7] was “dose-dependent decrease” and the “necrotic cells, dose dependence” value [4, 7] was “dose-dependent decrease”. For the same molecule, the viable cells [4, 7] was “increase in viable cells”, the “G2M phase, 1.0 mM vs 0.5 mM treatment” value ([5]; 18 hours after UVB 30 mJ/cm^2) was “comparable” and the “effect on different phases of the cell cycle, 6 vs 18 hour” value ([5]; UVB 30 mJ/cm^2, IP-6 0.5 or 1.0 mM) was “no time-dependent differences”.
